Calls of active or inactive are those of the source. The rule behind the calls is not given here.
Experiments:
[1] = Cytotoxicity against human Hs 578T cells; assay type: functional
[2] = test system: MDA-MB-231; test: Cytotoxicity against human MDA-MB-231 cells; assay type: functional
[3] = test system: NCI-H460; test: Cytotoxicity against human NCI-H460 cells; assay type: functional
[4] = test system: MOLT-4; test: Cytotoxicity against human MOLT4 cells; assay type: functional
[5] = test system: RPMI-8226; test: Cytotoxicity against human RPMI8226 cells; assay type: functional
[6] = test system: MDA-MB-435; test: Cytotoxicity against human MDA-MB-435 cells; assay type: functional
[7] = test system: UACC-62; test: Cytotoxicity against human UACC62 cells; assay type: functional
[8] = test system: IGROV-1; test: Cytotoxicity against human IGROV1 cells; assay type: functional
[9] = test system: OVCAR-5; test: Cytotoxicity against human OVCAR5 cells; assay type: functional
[10] = test system: OVCAR-8; test: Cytotoxicity against human OVCAR8 cells; assay type: functional
[11] = test system: HUVEC; test: Antiangiogenic activity against HUVEC cells assessed as inhibition of VEGF-induced cell migration-associated wound closure after 16 hrs by microscopic analysis; assay type: functional, cell-based; conditions: Homo sapiens
[12] = test system: MDA-MB-231; test: Decrease in VEGF expression in human MDA-MB-231 cells at >10 uM after 24 hrs by sandwich ELISA; assay type: functional, cell-based
[13] = Inhibition of TNF-alpha-induced Nuclear factor-kappa-B-mediated ICAM-1 expression in human HMEC1 cells after 24 hrs by FACS analysis; assay type: cell-based; conditions: HMEC-1, 24 h
[14] = test system: HMEC-1; test: Inhibition of RNA synthesis in human HMEC1 cells assessed as decrease in [3H] Uridine incorporation after 2 hrs by scintillation counting; assay type: functional, cell-based
[15] = target: Cyclin-dependent kinase 9 (Homo sapiens) (UniProt P50750); test: Inhibition of CDK9-catalyzed RNA polymerase 2 phosphorylation at Ser2 in human MCF7 cells after 2 hrs by immunoblotting; assay type: cell-based
Sequence of Cyclin-dependent kinase 9 (Homo sapiens) (P50750 whole entry): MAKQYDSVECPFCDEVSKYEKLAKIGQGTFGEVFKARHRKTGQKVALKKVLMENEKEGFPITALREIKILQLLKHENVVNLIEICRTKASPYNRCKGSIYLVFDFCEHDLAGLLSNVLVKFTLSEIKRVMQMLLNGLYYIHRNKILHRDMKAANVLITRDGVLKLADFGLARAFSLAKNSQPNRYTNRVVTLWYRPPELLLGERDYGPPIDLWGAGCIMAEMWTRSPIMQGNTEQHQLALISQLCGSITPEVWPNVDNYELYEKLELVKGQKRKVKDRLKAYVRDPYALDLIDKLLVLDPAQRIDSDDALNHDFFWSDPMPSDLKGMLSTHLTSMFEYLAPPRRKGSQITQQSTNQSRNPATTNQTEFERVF

[16] = Inhibition of AMPK assessed as residual activity at 10 uM by radioactivity assay in presence of 50 uM ATP
[17] = target: Calcium/calmodulin-dependent protein kinase kinase 2 (Homo sapiens) (UniProt Q96RR4); test: Inhibition of CAMKKbeta assessed as residual activity at 10 uM by radioactivity assay in presence of 20 uM ATP
[18] = target: Casein kinase II subunit alpha (Homo sapiens) (UniProt P68400); test: Inhibition of CK2alpha assessed as residual activity at 10 uM by radioactivity assay in presence of 20 uM ATP
[19] = target: Eukaryotic elongation factor 2 kinase (Homo sapiens) (UniProt O00418); test: Inhibition of EF2K assessed as residual activity at 10 uM by radioactivity assay in presence of 5 uM ATP
[20] = target: Mitogen-activated protein kinase 3 (Homo sapiens) (UniProt P27361); test: Inhibition of ERK1 assessed as residual activity at 10 uM by radioactivity assay in presence of 5 uM ATP
[21] = target: Fibroblast growth factor receptor 1 (Homo sapiens) (UniProt P11362); test: Inhibition of FGF-R1 assessed as residual activity at 10 uM by radioactivity assay in presence of 20 uM ATP
Sequence of Fibroblast growth factor receptor 1 (Homo sapiens) (P11362 22-822 limits assumed): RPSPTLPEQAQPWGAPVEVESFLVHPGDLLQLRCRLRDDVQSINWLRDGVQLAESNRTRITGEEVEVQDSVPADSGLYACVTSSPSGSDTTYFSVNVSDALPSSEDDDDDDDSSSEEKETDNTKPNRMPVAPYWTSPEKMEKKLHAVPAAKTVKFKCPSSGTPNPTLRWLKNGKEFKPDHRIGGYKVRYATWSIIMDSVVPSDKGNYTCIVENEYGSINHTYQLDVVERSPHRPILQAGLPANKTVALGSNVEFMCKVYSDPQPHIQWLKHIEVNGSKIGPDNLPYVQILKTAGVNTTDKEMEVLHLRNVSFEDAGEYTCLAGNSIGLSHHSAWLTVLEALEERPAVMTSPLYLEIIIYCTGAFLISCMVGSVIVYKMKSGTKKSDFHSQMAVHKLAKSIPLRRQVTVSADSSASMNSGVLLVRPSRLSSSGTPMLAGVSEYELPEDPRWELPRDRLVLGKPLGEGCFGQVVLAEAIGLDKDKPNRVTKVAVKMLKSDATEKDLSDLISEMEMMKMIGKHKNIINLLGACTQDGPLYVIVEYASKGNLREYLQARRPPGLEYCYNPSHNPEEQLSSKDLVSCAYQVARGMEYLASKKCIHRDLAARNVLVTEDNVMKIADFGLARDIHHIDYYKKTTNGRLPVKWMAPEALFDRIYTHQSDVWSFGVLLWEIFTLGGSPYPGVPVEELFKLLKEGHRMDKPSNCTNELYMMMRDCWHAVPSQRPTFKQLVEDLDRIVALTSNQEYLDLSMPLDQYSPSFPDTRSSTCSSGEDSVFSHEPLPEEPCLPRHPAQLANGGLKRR

[22] = target: Glycogen synthase kinase-3 beta (Homo sapiens) (UniProt P49841); test: Inhibition of GSK3b assessed as residual activity at 10 uM by radioactivity assay in presence of 5 uM ATP
Sequence of Glycogen synthase kinase-3 beta (Homo sapiens) (P49841 whole entry, looked up): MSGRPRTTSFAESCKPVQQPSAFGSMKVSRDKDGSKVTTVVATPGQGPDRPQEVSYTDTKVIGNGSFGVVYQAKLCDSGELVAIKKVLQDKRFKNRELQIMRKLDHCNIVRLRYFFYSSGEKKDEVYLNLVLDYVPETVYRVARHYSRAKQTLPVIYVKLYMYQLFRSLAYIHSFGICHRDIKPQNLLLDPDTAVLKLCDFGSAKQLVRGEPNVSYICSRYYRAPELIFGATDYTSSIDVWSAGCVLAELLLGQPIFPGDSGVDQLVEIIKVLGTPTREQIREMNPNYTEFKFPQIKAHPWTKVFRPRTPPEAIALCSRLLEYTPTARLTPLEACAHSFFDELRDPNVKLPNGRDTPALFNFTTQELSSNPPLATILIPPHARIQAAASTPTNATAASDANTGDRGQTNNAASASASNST

[23] = target: Mitogen-activated protein kinase 8 (Homo sapiens) (UniProt P45983); test: Inhibition of JNK1A1 assessed as residual activity at 10 uM by radioactivity assay in presence of 20 uM ATP
Sequence of Mitogen-activated protein kinase 8 (Homo sapiens) (P45983 whole entry): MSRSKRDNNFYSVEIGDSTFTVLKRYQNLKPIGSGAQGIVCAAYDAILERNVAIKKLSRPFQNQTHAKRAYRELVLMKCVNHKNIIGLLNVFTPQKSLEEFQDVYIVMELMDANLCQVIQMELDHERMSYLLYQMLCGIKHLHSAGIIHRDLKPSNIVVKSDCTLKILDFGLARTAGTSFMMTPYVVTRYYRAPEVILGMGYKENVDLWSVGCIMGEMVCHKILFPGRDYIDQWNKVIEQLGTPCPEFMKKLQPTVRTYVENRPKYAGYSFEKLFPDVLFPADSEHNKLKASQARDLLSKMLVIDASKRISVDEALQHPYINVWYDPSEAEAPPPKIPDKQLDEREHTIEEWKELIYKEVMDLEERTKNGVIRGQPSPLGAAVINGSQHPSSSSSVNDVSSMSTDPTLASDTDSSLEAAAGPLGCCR

[24] = target: Tyrosine-protein kinase Lck (Homo sapiens) (UniProt P06239); test: Inhibition of Lck assessed as residual activity at 10 uM by radioactivity assay in presence of 50 uM ATP
Sequence of Tyrosine-protein kinase Lck (Homo sapiens) (P06239 2-509 limits assumed): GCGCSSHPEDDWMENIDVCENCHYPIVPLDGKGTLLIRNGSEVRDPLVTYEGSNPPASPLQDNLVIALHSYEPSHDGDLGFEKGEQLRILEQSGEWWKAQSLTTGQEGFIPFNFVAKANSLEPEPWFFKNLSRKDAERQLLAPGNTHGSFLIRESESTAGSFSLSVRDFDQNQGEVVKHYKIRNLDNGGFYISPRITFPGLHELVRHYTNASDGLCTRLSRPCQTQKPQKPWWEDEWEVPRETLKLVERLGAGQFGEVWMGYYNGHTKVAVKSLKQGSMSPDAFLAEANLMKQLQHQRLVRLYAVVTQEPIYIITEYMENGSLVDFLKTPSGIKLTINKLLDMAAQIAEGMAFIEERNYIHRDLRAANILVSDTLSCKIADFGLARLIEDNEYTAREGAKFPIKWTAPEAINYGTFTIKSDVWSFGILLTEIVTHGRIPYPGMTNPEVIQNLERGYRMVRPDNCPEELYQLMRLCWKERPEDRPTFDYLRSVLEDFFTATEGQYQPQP

[25] = target: Mitogen-activated protein kinase 10 (Homo sapiens) (UniProt P53779); test: Inhibition of JNK3alpha1 assessed as residual activity at 10 uM by radioactivity assay in presence of 20 uM ATP
[26] = target: Misshapen-like kinase 1 (Homo sapiens) (UniProt Q8N4C8); test: Inhibition of MINK1 assessed as residual activity at 10 uM by radioactivity assay in presence of 50 uM ATP
[27] = target: MAP kinase-interacting serine/threonine-protein kinase 2 (Homo sapiens) (UniProt Q9HBH9); test: Inhibition of MNK2alpha assessed as residual activity at 10 uM by radioactivity assay in presence of 50 uM ATP
[28] = target: Serine/threonine-protein kinase PAK 2 (Homo sapiens) (UniProt Q13177); test: Inhibition of PAK2 assessed as residual activity at 10 uM by radioactivity assay in presence of 20 uM ATP
Sequence of Serine/threonine-protein kinase PAK 2 (Homo sapiens) (Q13177 whole entry): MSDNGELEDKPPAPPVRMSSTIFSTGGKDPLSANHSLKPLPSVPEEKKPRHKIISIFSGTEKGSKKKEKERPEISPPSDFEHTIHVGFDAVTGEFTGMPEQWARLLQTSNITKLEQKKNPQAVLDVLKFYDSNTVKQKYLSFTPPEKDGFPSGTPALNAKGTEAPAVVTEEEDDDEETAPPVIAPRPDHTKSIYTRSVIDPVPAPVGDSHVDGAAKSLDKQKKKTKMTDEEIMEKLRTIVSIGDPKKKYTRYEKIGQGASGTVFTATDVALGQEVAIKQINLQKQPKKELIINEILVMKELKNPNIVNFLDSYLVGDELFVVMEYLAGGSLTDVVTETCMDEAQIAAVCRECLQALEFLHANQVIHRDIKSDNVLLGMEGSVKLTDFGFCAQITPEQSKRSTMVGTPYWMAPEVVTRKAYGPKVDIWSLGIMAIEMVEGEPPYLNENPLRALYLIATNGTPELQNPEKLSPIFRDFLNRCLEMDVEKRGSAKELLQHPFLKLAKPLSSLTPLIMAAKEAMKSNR

[29] = target: Serine/threonine-protein kinase pim-3 (Homo sapiens) (UniProt Q86V86); test: Inhibition of PIM3 assessed as residual activity at 10 uM by radioactivity assay in presence of 20 uM ATP
[30] = target: Protein kinase C zeta type (Homo sapiens) (UniProt Q05513); test: Inhibition of PKCzeta assessed as residual activity at 10 uM by radioactivity assay in presence of 5 uM ATP
[31] = target: Serine/threonine-protein kinase D1 (Homo sapiens) (UniProt Q15139); test: Inhibition of PKD1 assessed as residual activity at 10 uM by radioactivity assay in presence of 50 uM ATP
Sequence of Serine/threonine-protein kinase D1 (Homo sapiens) (Q15139 whole entry): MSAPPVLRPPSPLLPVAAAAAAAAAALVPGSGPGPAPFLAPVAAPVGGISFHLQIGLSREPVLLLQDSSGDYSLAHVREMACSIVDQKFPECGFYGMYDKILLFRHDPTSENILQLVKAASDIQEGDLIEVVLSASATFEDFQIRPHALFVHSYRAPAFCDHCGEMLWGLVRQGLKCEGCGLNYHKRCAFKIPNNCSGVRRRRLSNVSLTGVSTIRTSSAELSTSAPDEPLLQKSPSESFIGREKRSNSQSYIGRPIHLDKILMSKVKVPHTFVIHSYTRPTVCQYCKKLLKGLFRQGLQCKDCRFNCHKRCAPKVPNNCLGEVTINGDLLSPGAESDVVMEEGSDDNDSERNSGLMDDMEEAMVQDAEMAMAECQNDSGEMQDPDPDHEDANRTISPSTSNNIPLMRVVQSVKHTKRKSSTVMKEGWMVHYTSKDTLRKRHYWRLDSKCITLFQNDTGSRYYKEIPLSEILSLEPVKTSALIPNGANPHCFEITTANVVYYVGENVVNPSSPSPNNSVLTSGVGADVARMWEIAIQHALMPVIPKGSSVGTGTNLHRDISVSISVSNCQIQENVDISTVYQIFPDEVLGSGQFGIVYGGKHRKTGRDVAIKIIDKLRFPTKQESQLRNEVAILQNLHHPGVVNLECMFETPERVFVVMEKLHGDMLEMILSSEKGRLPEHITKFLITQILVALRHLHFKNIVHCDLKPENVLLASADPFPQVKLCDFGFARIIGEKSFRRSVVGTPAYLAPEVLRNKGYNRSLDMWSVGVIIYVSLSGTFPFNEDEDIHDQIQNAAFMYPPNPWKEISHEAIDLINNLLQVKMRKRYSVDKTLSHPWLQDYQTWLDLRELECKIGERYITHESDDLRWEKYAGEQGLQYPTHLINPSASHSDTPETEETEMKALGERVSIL

[32] = target: MAP kinase-activated protein kinase 5 (Homo sapiens) (UniProt Q8IW41); test: Inhibition of PRAK assessed as residual activity at 10 uM by radioactivity assay in presence of 20 uM ATP
Sequence of MAP kinase-activated protein kinase 5 (Homo sapiens) (Q8IW41 whole entry): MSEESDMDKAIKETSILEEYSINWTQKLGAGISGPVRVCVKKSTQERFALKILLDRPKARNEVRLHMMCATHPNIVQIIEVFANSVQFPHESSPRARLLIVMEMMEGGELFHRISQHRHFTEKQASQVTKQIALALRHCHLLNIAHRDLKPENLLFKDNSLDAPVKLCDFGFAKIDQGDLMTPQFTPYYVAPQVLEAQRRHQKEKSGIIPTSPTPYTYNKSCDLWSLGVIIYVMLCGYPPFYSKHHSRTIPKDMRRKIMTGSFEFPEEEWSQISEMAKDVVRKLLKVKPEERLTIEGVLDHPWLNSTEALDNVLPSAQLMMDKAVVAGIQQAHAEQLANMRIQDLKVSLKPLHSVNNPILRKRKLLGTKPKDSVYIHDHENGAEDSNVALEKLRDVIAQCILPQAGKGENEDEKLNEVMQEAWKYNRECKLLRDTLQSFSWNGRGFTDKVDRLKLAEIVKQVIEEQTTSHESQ

[33] = target: Ribosomal protein S6 kinase alpha-3 (Homo sapiens) (UniProt P51812); test: Inhibition of RSK2 assessed as residual activity at 10 uM by radioactivity assay in presence of 50 uM ATP
[34] = target: Serine/threonine-protein kinase Sgk1 (Homo sapiens) (UniProt O00141); test: Inhibition of SGK1 assessed as residual activity at 10 uM by radioactivity assay in presence of 20 uM ATP
Sequence of Serine/threonine-protein kinase Sgk1 (Homo sapiens) (O00141 whole entry): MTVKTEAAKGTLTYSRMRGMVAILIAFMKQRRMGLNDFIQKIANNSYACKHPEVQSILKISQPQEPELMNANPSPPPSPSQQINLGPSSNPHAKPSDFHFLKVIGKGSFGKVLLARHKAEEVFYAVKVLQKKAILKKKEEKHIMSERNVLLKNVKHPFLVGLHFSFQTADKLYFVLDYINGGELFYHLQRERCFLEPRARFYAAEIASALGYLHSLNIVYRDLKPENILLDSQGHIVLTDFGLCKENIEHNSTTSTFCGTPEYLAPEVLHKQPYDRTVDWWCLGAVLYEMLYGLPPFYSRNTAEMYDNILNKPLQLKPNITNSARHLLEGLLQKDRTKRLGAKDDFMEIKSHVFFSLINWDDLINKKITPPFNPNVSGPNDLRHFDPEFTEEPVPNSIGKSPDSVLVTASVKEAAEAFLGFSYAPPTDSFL

[35] = target: Tyrosine-protein kinase SYK (Homo sapiens) (UniProt P43405); test: Inhibition of SYK assessed as residual activity at 10 uM by radioactivity assay in presence of 20 uM ATP
[36] = Inhibition of VEGFR assessed as residual activity at 10 uM by radioactivity assay in presence of 20 uM ATP
[37] = test system: HUVEC; test: Antiangiogenic activity against HUVEC cells assessed as inhibition of VEGF-induced cell migration-associated wound closure at >10 uM after 16 hrs by microscopic analysis; assay type: functional, cell-based; conditions: Homo sapiens
[38] = Antiproliferative activity against HMEC1 cells assessed as decrease in cell viability at 10 to 40 uM within 72 hrs by calcein AM staining-based fluorescence assay; conditions: human, hmec-1, 72 h
[39] = target: 3-phosphoinositide-dependent protein kinase 1 (Homo sapiens) (UniProt O15530); test: Inhibition of PDK1 assessed as residual activity at 10 uM by radioactivity assay in presence of 20 uM ATP

Nc1n[nH]c(N)c1/N=N/c1ccc(O)cc1
GI50 [1]: 21.8 µM
GI50 [2]: 16.7 µM
GI50 [3]: 25.1 µM
GI50 [4]: 13.5 µM
GI50 [5]: 14.4 µM
GI50 [6]: 17.1 µM
GI50 [7]: 11 µM
GI50 [8]: 20.6 µM
GI50 [9]: 23.5 µM
GI50 [10]: 18 µM
inhibition [11]: Dose-dependent effect
Activity [12]: Active
IC50 [13]: 20 µM
IC50 [14]: 20 µM
inhibition [15]: Dose-dependent effect
Activity [16]: 82%
Activity [17]: 52%
Activity [18]: 48%
Activity [19]: 106%
Activity [20]: 115%
Activity [21]: 68%
Activity [22]: 64%
Activity [23]: 87%
Activity [24]: 113%
Activity [25]: 108%
Activity [26]: 29%
Activity [27]: 39%
Activity [28]: 91%
Activity [29]: 19%
Activity [30]: 74%
Activity [31]: 67%
Activity [32]: 43%
Activity [33]: 96%
Activity [34]: 94%
Activity [35]: 94%
Activity [36]: 42%
inhibition [37]: Active
Activity [38]: Non-toxic
Activity [39]: 66%
